Columns and labels:
Assay in all cases: relative viability (nuclei count vs DMSO), 5 days (fraction); higher = more cells survive
Omipalisib = compound: COc1ncc(-c2ccc3nccc(-c4ccnnc4)c3c2)cc1NS(=O)(=O)c1ccc(F)cc1F [Omipalisib]
Outline: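 Lung cancer cell lines were seeded into 1536-well plates, kept overnight at 37 °C and pinned with five library-drug doses (not always all listed) spaced by √10. After 5 days, nuclei were Hoechst-stained, imaged at 4× and counted with MetaXpress. Viability is treated-well nuclei over vehicle-well nuclei, taken as a median across plates. Plates needed control CV below 25% and at least one doubling.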

Omipalisib + Trametinib = compound: COc1ncc(-c2ccc3nccc(-c4ccnnc4)c3c2)cc1NS(=O)(=O)c1ccc(F)cc1F [Omipalisib] + CC(=O)Nc1cccc(-n2c(=O)n(C3CC3)c(=O)c3c(Nc4ccc(I)cc4F)n(C)c(=O)c(C)c32)c1 [Trametinib] (partner 0.02 µM)
Outline: (§1)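 Lung cancer cell lines in 1536-well plates got either a single drug or a fixed anchor-drug dose together with five library-drug doses (not always all listed) in √10 steps, by pin tool, on the day after seeding. Nuclei were counted after 5 days, and relative viability is the treated-to-vehicle ratio of nuclei counts. Values are medians of duplicate plates.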

Omipalisib + Palbociclib = compound: COc1ncc(-c2ccc3nccc(-c4ccnnc4)c3c2)cc1NS(=O)(=O)c1ccc(F)cc1F [Omipalisib] + CC(=O)c1c(C)c2cnc(Nc3ccc(N4CCNCC4)cn3)nc2n(C2CCCC2)c1=O [Palbociclib] (partner 0.5 µM)
Outline: as §1

Omipalisib + Foretinib = compound: COc1ncc(-c2ccc3nccc(-c4ccnnc4)c3c2)cc1NS(=O)(=O)c1ccc(F)cc1F [Omipalisib] + COc1cc2c(Oc3ccc(NC(=O)C4(C(=O)Nc5ccc(F)cc5)CC4)cc3F)ccnc2cc1OCCCN1CCOCC1 [Foretinib] (partner 0.25 µM)
Outline: as §1

Omipalisib + Crizotinib = compound: COc1ncc(-c2ccc3nccc(-c4ccnnc4)c3c2)cc1NS(=O)(=O)c1ccc(F)cc1F [Omipalisib] + C[C@@H](Oc1cc(-c2cnn(C3CCNCC3)c2)cnc1N)c1c(Cl)ccc(F)c1Cl [Crizotinib] (partner 1 µM)
Outline: as §1

Omipalisib + Tozasertib = compound: COc1ncc(-c2ccc3nccc(-c4ccnnc4)c3c2)cc1NS(=O)(=O)c1ccc(F)cc1F [Omipalisib] + Cc1cc(Nc2cc(N3CCN(C)CC3)nc(Sc3ccc(NC(=O)C4CC4)cc3)n2)n[nH]1 [Tozasertib] (partner 0.1 µM)
Outline: as §1

PC-14
relative viability (Omipalisib; 0.0003 µM): 1.05
relative viability (Omipalisib; 0.003 µM): 1.05
relative viability (Omipalisib; 0.03 µM): 0.795
relative viability (Omipalisib + Trametinib; first compound 0.0003 µM): 0.807
relative viability (Omipalisib + Trametinib; first compound 0.003 µM): 0.682
relative viability (Omipalisib + Trametinib; first compound 0.03 µM): 0.243
relative viability (Omipalisib + Palbociclib; first compound 0.0003 µM): 0.521
relative viability (Omipalisib + Palbociclib; first compound 0.003 µM): 0.614
relative viability (Omipalisib + Palbociclib; first compound 0.03 µM): 0.327
relative viability (Omipalisib + Foretinib; first compound 0.0003 µM): 0.904
relative viability (Omipalisib + Foretinib; first compound 0.003 µM): 0.961
relative viability (Omipalisib + Foretinib; first compound 0.03 µM): 0.967
relative viability (Omipalisib + Crizotinib; first compound 0.0003 µM): 0.855
relative viability (Omipalisib + Crizotinib; first compound 0.003 µM): 0.912
relative viability (Omipalisib + Crizotinib; first compound 0.03 µM): 0.799
relative viability (Omipalisib + Tozasertib; first compound 0.0003 µM): 0.672
relative viability (Omipalisib + Tozasertib; first compound 0.003 µM): 0.674
relative viability (Omipalisib + Tozasertib; first compound 0.03 µM): 0.411

NCI-H520
relative viability (Omipalisib; 0.0003 µM): 0.787
relative viability (Omipalisib; 0.003 µM): 0.588
relative viability (Omipalisib; 0.03 µM): 0.252
relative viability (Omipalisib + Trametinib; first compound 0.0003 µM): 0.576
relative viability (Omipalisib + Trametinib; first compound 0.003 µM): 0.314
relative viability (Omipalisib + Trametinib; first compound 0.03 µM): 0.172
relative viability (Omipalisib + Palbociclib; first compound 0.0003 µM): 0.203
relative viability (Omipalisib + Palbociclib; first compound 0.003 µM): 0.152
relative viability (Omipalisib + Palbociclib; first compound 0.03 µM): 0.145
relative viability (Omipalisib + Foretinib; first compound 0.0003 µM): 0.742
relative viability (Omipalisib + Foretinib; first compound 0.003 µM): 0.441
relative viability (Omipalisib + Foretinib; first compound 0.03 µM): 0.226
relative viability (Omipalisib + Crizotinib; first compound 0.0003 µM): 0.636
relative viability (Omipalisib + Crizotinib; first compound 0.003 µM): 0.622
relative viability (Omipalisib + Crizotinib; first compound 0.03 µM): 0.193
relative viability (Omipalisib + Tozasertib; first compound 0.0003 µM): 0.319
relative viability (Omipalisib + Tozasertib; first compound 0.003 µM): 0.308
relative viability (Omipalisib + Tozasertib; first compound 0.03 µM): 0.235

HCC-78
relative viability (Omipalisib; 0.0003 µM): 0.937
relative viability (Omipalisib; 0.003 µM): 0.666
relative viability (Omipalisib; 0.03 µM): 0.345
relative viability (Omipalisib + Trametinib; first compound 0.0003 µM): 0.596
relative viability (Omipalisib + Trametinib; first compound 0.003 µM): 0.558
relative viability (Omipalisib + Trametinib; first compound 0.03 µM): 0.275
relative viability (Omipalisib + Palbociclib; first compound 0.0003 µM): 0.48
relative viability (Omipalisib + Palbociclib; first compound 0.003 µM): 0.411
relative viability (Omipalisib + Palbociclib; first compound 0.03 µM): 0.414
relative viability (Omipalisib + Foretinib; first compound 0.0003 µM): 0.436
relative viability (Omipalisib + Foretinib; first compound 0.003 µM): 0.433
relative viability (Omipalisib + Foretinib; first compound 0.03 µM): 0.266
relative viability (Omipalisib + Crizotinib; first compound 0.0003 µM): 0.299
relative viability (Omipalisib + Crizotinib; first compound 0.003 µM): 0.232
relative viability (Omipalisib + Crizotinib; first compound 0.03 µM): 0.192
relative viability (Omipalisib + Tozasertib; first compound 0.0003 µM): 0.327
relative viability (Omipalisib + Tozasertib; first compound 0.003 µM): 0.328
relative viability (Omipalisib + Tozasertib; first compound 0.03 µM): 0.21

COR-L23
relative viability (Omipalisib; 0.0003 µM): 1.01
relative viability (Omipalisib; 0.003 µM): 1
relative viability (Omipalisib; 0.03 µM): 0.631
relative viability (Omipalisib + Trametinib; first compound 0.0003 µM): 0.496
relative viability (Omipalisib + Trametinib; first compound 0.003 µM): 0.342
relative viability (Omipalisib + Trametinib; first compound 0.03 µM): 0.249
relative viability (Omipalisib + Palbociclib; first compound 0.0003 µM): 0.286
relative viability (Omipalisib + Palbociclib; first compound 0.003 µM): 0.246
relative viability (Omipalisib + Palbociclib; first compound 0.03 µM): 0.212
relative viability (Omipalisib + Foretinib; first compound 0.0003 µM): 0.974
relative viability (Omipalisib + Foretinib; first compound 0.003 µM): 1.01
relative viability (Omipalisib + Foretinib; first compound 0.03 µM): 0.719
relative viability (Omipalisib + Crizotinib; first compound 0.0003 µM): 0.794
relative viability (Omipalisib + Crizotinib; first compound 0.003 µM): 0.667
relative viability (Omipalisib + Crizotinib; first compound 0.03 µM): 0.292
relative viability (Omipalisib + Tozasertib; first compound 0.0003 µM): 0.209
relative viability (Omipalisib + Tozasertib; first compound 0.003 µM): 0.21
relative viability (Omipalisib + Tozasertib; first compound 0.03 µM): 0.159

LU99A
relative viability (Omipalisib; 0.0003 µM): 0.936
relative viability (Omipalisib; 0.003 µM): 0.847
relative viability (Omipalisib; 0.03 µM): 0.395
relative viability (Omipalisib + Trametinib; first compound 0.0003 µM): 0.5
relative viability (Omipalisib + Trametinib; first compound 0.003 µM): 0.367
relative viability (Omipalisib + Trametinib; first compound 0.03 µM): 0.22
relative viability (Omipalisib + Palbociclib; first compound 0.0003 µM): 0.396
relative viability (Omipalisib + Palbociclib; first compound 0.003 µM): 0.24
relative viability (Omipalisib + Palbociclib; first compound 0.03 µM): 0.183
relative viability (Omipalisib + Foretinib; first compound 0.0003 µM): 0.718
relative viability (Omipalisib + Foretinib; first compound 0.003 µM): 0.464
relative viability (Omipalisib + Foretinib; first compound 0.03 µM): 0.327
relative viability (Omipalisib + Crizotinib; first compound 0.0003 µM): 0.55
relative viability (Omipalisib + Crizotinib; first compound 0.003 µM): 0.449
relative viability (Omipalisib + Crizotinib; first compound 0.03 µM): 0.225
relative viability (Omipalisib + Tozasertib; first compound 0.0003 µM): 0.289
relative viability (Omipalisib + Tozasertib; first compound 0.003 µM): 0.233
relative viability (Omipalisib + Tozasertib; first compound 0.03 µM): 0.215

SW 900
relative viability (Omipalisib; 0.0003 µM): 0.886
relative viability (Omipalisib; 0.003 µM): 0.768
relative viability (Omipalisib; 0.03 µM): 0.591
relative viability (Omipalisib + Trametinib; first compound 0.0003 µM): 0.625
relative viability (Omipalisib + Trametinib; first compound 0.003 µM): 0.915
relative viability (Omipalisib + Trametinib; first compound 0.03 µM): 0.396
relative viability (Omipalisib + Palbociclib; first compound 0.0003 µM): 0.522
relative viability (Omipalisib + Palbociclib; first compound 0.003 µM): 0.444
relative viability (Omipalisib + Palbociclib; first compound 0.03 µM): 0.278
relative viability (Omipalisib + Foretinib; first compound 0.0003 µM): 0.888
relative viability (Omipalisib + Foretinib; first compound 0.003 µM): 0.691
relative viability (Omipalisib + Foretinib; first compound 0.03 µM): 0.622
relative viability (Omipalisib + Tozasertib; first compound 0.0003 µM): 0.556
relative viability (Omipalisib + Tozasertib; first compound 0.003 µM): 0.562
relative viability (Omipalisib + Tozasertib; first compound 0.03 µM): 0.423

HCC-44
relative viability (Omipalisib; 0.0003 µM): 1.01
relative viability (Omipalisib; 0.003 µM): 0.953
relative viability (Omipalisib; 0.03 µM): 0.416
relative viability (Omipalisib + Trametinib; first compound 0.0003 µM): 0.983
relative viability (Omipalisib + Trametinib; first compound 0.003 µM): 0.921
relative viability (Omipalisib + Trametinib; first compound 0.03 µM): 0.468
relative viability (Omipalisib + Palbociclib; first compound 0.0003 µM): 0.962
relative viability (Omipalisib + Palbociclib; first compound 0.003 µM): 0.962
relative viability (Omipalisib + Palbociclib; first compound 0.03 µM): 0.879
relative viability (Omipalisib + Crizotinib; first compound 0.0003 µM): 0.783
relative viability (Omipalisib + Crizotinib; first compound 0.003 µM): 0.74
relative viability (Omipalisib + Crizotinib; first compound 0.03 µM): 0.308
relative viability (Omipalisib + Tozasertib; first compound 0.0003 µM): 1.03
relative viability (Omipalisib + Tozasertib; first compound 0.003 µM): 0.953
relative viability (Omipalisib + Tozasertib; first compound 0.03 µM): 0.234

NCI-H596
relative viability (Omipalisib; 0.0003 µM): 0.944
relative viability (Omipalisib; 0.003 µM): 0.673
relative viability (Omipalisib; 0.03 µM): 0.421
relative viability (Omipalisib + Trametinib; first compound 0.0003 µM): 0.899
relative viability (Omipalisib + Trametinib; first compound 0.003 µM): 0.494
relative viability (Omipalisib + Trametinib; first compound 0.03 µM): 0.299
relative viability (Omipalisib + Foretinib; first compound 0.0003 µM): 0.559
relative viability (Omipalisib + Foretinib; first compound 0.003 µM): 0.485
relative viability (Omipalisib + Foretinib; first compound 0.03 µM): 0.304
relative viability (Omipalisib + Crizotinib; first compound 0.0003 µM): 0.93
relative viability (Omipalisib + Crizotinib; first compound 0.003 µM): 0.561
relative viability (Omipalisib + Crizotinib; first compound 0.03 µM): 0.361
relative viability (Omipalisib + Tozasertib; first compound 0.0003 µM): 0.824
relative viability (Omipalisib + Tozasertib; first compound 0.003 µM): 0.598
relative viability (Omipalisib + Tozasertib; first compound 0.03 µM): 0.287

NCI-H2342
relative viability (Omipalisib; 0.0003 µM): 0.741
relative viability (Omipalisib; 0.003 µM): 0.63
relative viability (Omipalisib; 0.03 µM): 0.534
relative viability (Omipalisib + Trametinib; first compound 0.0003 µM): 0.732
relative viability (Omipalisib + Trametinib; first compound 0.003 µM): 0.583
relative viability (Omipalisib + Trametinib; first compound 0.03 µM): 0.449
relative viability (Omipalisib + Palbociclib; first compound 0.0003 µM): 0.459
relative viability (Omipalisib + Palbociclib; first compound 0.003 µM): 0.442
relative viability (Omipalisib + Palbociclib; first compound 0.03 µM): 0.406
relative viability (Omipalisib + Foretinib; first compound 0.0003 µM): 0.816
relative viability (Omipalisib + Foretinib; first compound 0.003 µM): 0.688
relative viability (Omipalisib + Foretinib; first compound 0.03 µM): 0.453
relative viability (Omipalisib + Tozasertib; first compound 0.0003 µM): 0.425
relative viability (Omipalisib + Tozasertib; first compound 0.003 µM): 0.442
relative viability (Omipalisib + Tozasertib; first compound 0.03 µM): 0.354

Reference: the supplement of paper PMC10307832
